Assay results taken from patent US9210927B2, “Pesticidal compositions and processes related thereto” (Dow AgroSciences LLC, priority 2013, dated 2015).

Legend:
[1] = tested on: BAW (Spodoptera exigua); assay: Bioassays on Beet Armyworm (BAW), 128-well diet tray assay; assay type: in vivo; details: Spodoptera exigua, 168 h; percent mortality, second instar larvae, 50 μg/cm^2 on artificial diet, five to seven days, 25° C.; read-out: BAW Rating
How it was run: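 Diet surface dosed at 50 μg/cm^2 (acetone-water 90:10 vehicle), dried, then infested with second-instar larvae, one to five per well. After five to seven days at 25° C. under 14:10 light-dark, mortality per well was scored and averaged over eight wells.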

[2] = tested on: CL (Trichoplusia ni); assay: Bioassays on Cabbage Looper (CL), 128-well diet tray assay; assay type: in vivo; details: 168 h, percent mortality, second instar larvae, 50 μg/cm^2 on artificial diet, five to seven days, 25° C., read-out: CL Rating
Description: Bioassays on Beet Armyworm (“BAW”) and Corn Earworm (“CEW”) and Cabbage Looper (“CL”)
Certain molecules disclosed in this document were tested against BAW and CEW and CL using procedures described in the following examples. In the reporting of the results, the “BAW & CEW & CL Rating Table” was used (See Table Section).
Bioassays on CL (Trichoplusia ni)
Bioassays on CL were conducted using a 128-well diet tray assay. One to five second instar CL larvae were placed in each well (3 mL) of the diet tray that had been previously filled with 1 mL of artificial diet to which 50 μg/cm^2 of the test compound (dissolved in 50 μL of 90:10 acetone-water mixture) had been applied (to each of eight wells) and then allowed to dry. Trays were covered with a clear self-adhesive cover, and held at 25° C., 14:10 light-dark for five to seven days. Percent mortality was recorded for the larvae in each well; activity in the eight wells was then averaged. The results are indicated in the table entitled “Table 3A: Assay Results” (See Table Section).

Row | melting point | SMILES | pest or weed control at 50 µg/cm2 [1] | pest or weed control at 50 µg/cm2 [2]
1 | 110 to 112 °C | NC(=O)c1ccc(/C=C/C(c2cc(Cl)cc(Cl)c2)C(F)(F)F)cc1 (centres unmarked) [AC2] |  | 
2 |  | CN(NC(=O)c1ccc(/C=C/C(c2cc(Cl)c(Cl)c(Cl)c2)C(F)(F)F)cc1C(F)(F)F)C(=O)NCC(F)F (centres unmarked) [FA8] | 50 to 100% | 50 to 100%
3 |  | CN(NC(=O)c1ccc(/C=C/C(c2cc(Cl)c(Cl)c(Cl)c2)C(F)(F)F)cc1C(F)(F)F)C(=O)NCCC(F)(F)F (centres unmarked) [FA9] | 50 to 100% | 50 to 100%
